Assay [1] deals with primary cultured neurons derived from the rat hippocampus. Briefly: Spontaneous excitatory postsynaptic currents (sEPSCs) by whole-cell patch-clamp in primary cultured neurons. The format is cell-based. Particulars: voltage-clamped at −60 mV. The source says:
(§1) A pregnant rat was anesthetized with diethyl ether, and the chest (heart) was dissected to sacrifice the rat by exsanguination. An abdomen was opened, and the uterus was dissected. After a fetus was sterilized with rubbing alcohol in a clean bench, the whole brain was dissected and placed in a petri dish containing a culture medium for neurons (SUMILON; Sumitomo Bakelite). The cerebral cortex and the hippocampus were dissected with fine forceps under a stereomicroscope, and transferred to 50-mL tubes independently. Each tube was allowed to stand, to precipitate each tissue, and each supernatant was removed by suction. A solution for cell dissocition [phosphate buffered saline (PBS) supplemented with 1% papain, 150 U/mL DNase I, 0.02% L-cysteine, 0.02% bovine serum albumin (BSA), and 0.5% glucose] was added to each tube, incubated at 37° C. for 15 minutes, and centrifuged (1000 rpm, 4° C., 5 minutes). Each supernatant was removed by suction, and 10 mL of a serum-free medium was added to each tube. The whole in each tube was dispersed by pipetting several times, and cell debris was removed through a filter to obtain each cell suspension.
To confirm the effects of the activating agents on improving the memory, improving learning ability, and/or antidementia, any one of the compounds A, B, C, and D, which were found in Example 16 and can activate the polypeptide consisting of the amino acid sequence of SEQ ID NO: 2, was applied to the neurons to examine an activity of enhancing neurotransmission in the neurons. More particularly, effects of compounds A, B, C, and D on spontaneous excitatory postsynaptic currents (sEPSCs) in primary cultured neurons derived from the rat hippocampus, obtained in Example 13, were examined by a whole-cell patch-clamp method. The sEPSCs is a change of current generated in the neurons, when synaptic vesicles located at the terminus of another cell spontaneously exocytosis a neurotransmitter, and the former cell receives the released neurotransmitter. Therefore, neurotransmission between the neurons can be measured by measuring the sEPSCs (Journal of Neurophysiology, 76, 3159-3168, 1996; The Journal of Neuroscience, 19, 5311-5321, 1999). Further, it is known that the neurotransmission is suppressed by inhibiting the sEPSCs (Journal of Neuroscience Research, 72, 116-124, 2003).
More particularly, the cells (approximately 1×10^5 cells per dish) obtained in Example 13 were plated in a culture dish having a diameter of 35 mm, and cultured for 1 to 5 weeks. As a culture medium, a culture medium for the neurons (SUMILON; Sumitomo Bakelite) was used. Other procedures for cultivation were carried out in accordance with known methods (Methods in Neuroscience vol. 2, Cell culture, P. Michael Conn ed, Academic Press, Inc. 1990). The cell was voltage-clamped at −60 mV by a whole-cell voltage-clamp method, and a whole-cell current generated when PS or each compound was applied was measured (Yasunobu Okada ed., “Shin pacchi kuranpu jikken gijyutsu hou”, Yoshioka shoten, 2001). A solution containing 140 mmol/L NaCl, 5.4 mmol/L KCl, 2 mmol/L CaCl2, 0.8 mmol/L MgCl2, 15 mmol/L glucose, 10 mmol/L HEPES-Na (pH=7.4), 20 μmol/L bicuculline, and 1 μmol/L strychnine was used as an extracellular solution. A solution containing 100 mmol/L potassium gluconate, 10 mmol/L EGTA, 5 mmol/L MgCl2, 2 mmol/L K2ATP, 0.3 mmol/L Na2GTP, and 40 mmol/L HEPES-K (pH=7.25) was used as an intracellular solution.

The test system of assay [2] is primary cultured neurons derived from rat cerebral cortex. Briefly: Calcium influx in primary cultured neurons derived from rat cerebral cortex. The format is cell-based.
From the text: as §1
This example was carried out in accordance with known methods (Yoshihisa Kudo ed., Jikken Igaku, Supplement “Saibo-nai karushiumu jikken purotokoru”, 1996, Youdo-sha), except for the following procedures.
A time course of fluorescence emitted from cells was measured in accordance with the method described in Example 6, except that the primary cultured neurons (4×10^4 cells) derived from the rat brain (cerebral cortex), obtained in Example 13, were cultured for a week and used, and that the final concentration of PS was 10 μmol/L or 50 μmol/L. As a control, a physiological saline without PS was used.
Any one of compounds A, B, C, and D, and PS was applied to primary cultured neurons derived from the rat cerebral cortex obtained in Example 13, and a calcium influx into the neurons was measured. More particularly, the measurement was carried out in accordance with the method described in Example 14, except that the number of cells was 1×10^5 cells.

In assay [3] the target is T1, polypeptide consisting of the amino acid sequence of SEQ ID NO: 2 (Homo sapiens, UniProt Q9HCF6, R1695Q).
T1 construct: expressed in transfected cells
Briefly: Calcium influx with calcium-sensitive fluorescent reagent (Fluo3-AM, FLIPR) in HEK293 transformants. The assay is classed as cell-based. The conditions noted are these: for EC50: method of Example 6, read-out: EC50 of activation (calcium influx). An excerpt: (§2) To detect a channel activity of the polypeptide consisting of the amino acid sequence of SEQ ID NO: 2, animal cells were transfected with the expression vector pcDNA3.1-MLSN2 obtained in Example 1 to express the polypeptide. The expression vector pcDNA3.1-MLSN2 obtained in Example 1 and reagents for transfection (LIPOFECTAMINE or LIPOFECTAMINE2000; Invitrogen) were used to transform human embryonic kidney derived HEK293 cells (ATCC No.: CRL-1573) and induce the expression of the polypeptide consisting of the amino acid sequence of SEQ ID NO: 2. The cells transfected with LIPOFECTAMINE were used in Examples 4 and 5, and the cells transfected with LIPOFECTAMINE2000 were used in Examples 6, 7, and 16.
(§3) The transformants (4×10^4 cells) obtained in Example 3 were incubated at 37° C. for an hour in the presence of a calcium-sensitive fluorescent reagent (Fluo3-AM; DOJINDO), and the reagent was incorporated into the cells. The cells were washed with a physiological saline to remove the reagent not incorporated. A physiological saline supplemented with PS (final concentration=10 μmol/L) was added to the treated cells, and a time course of fluorescence emitted from the cells was measured using an automated fluorescence detector (FLIPR; Molecular Device). As controls, the same procedures were repeated, except that HEK293 cells transfected with pcDNA3.1(+) (i.e., control cells not expressing the polypeptide of SEQ ID NO: 2) were used, or except that a physiological saline without PS was used.
A screening of compounds (activating agents) capable of activating the polypeptide consisting of the amino acid sequence of SEQ ID NO: 2 was carried out. As an index of activation, a calcium influx into cells was detected by using a calcium-sensitive fluorescent reagent, more particularly, in accordance to the method described in Example 6.

Assay [4] relates to HEK cells not expressing the polypeptide of SEQ ID NO: 2. The assay can be described thus: Calcium influx (Fluo3-AM, FLIPR) in control HEK293 cells. The format is cell-based, human. The conditions noted are these: for increase in fluorescent intensity: negative control cells. On the procedure:
as §3
Various compounds were examined, and, as a compound showing an increase in fluorescent intensity, N-[3-(2,6-dichlorophenyl)-5-methylisoxazole-4-yl]-N′-ethyl-N-methyl-N′-phenylurea (code no. SPB 00071; MAYBRIDGE), 3-(2,6-difluorophenyl)-4-(piperidine-1-ylmethyl)-1,3-thiazole-2(3H)-thion (code no. MS 1368; MERLIN), 3-(2,6-difluorophenyl)-4-(pyrrolidine-1-ylmethyl)-1,3-thiazole-2(3H)-thion (code no. MS 1370; MERLIN), and N-(2-acetyl-3-thienyl)-2-[(2-chloro-6-fluorobenzyl)sulfanil]acetamide (code no. GK 00678; Ryan Scientific) (hereinafter referred to as compounds A, B, C, and D, respectively) were found.

The test system of the next assay is hippocampal slices. The conditions noted are these: non-patent references 3, 6 and 7; cited from earlier work.
Assay [5] has as its target T1, polypeptide consisting of the amino acid sequence of SEQ ID NO: 2. The assay can be described thus: Whole-cell voltage-clamp detection of channel activity in transfected HEK293 cells. The assay is classed as cell-based. Particulars: n=10.
From the text: as §2
Each cell obtained in Example 3 was voltage-clamped by a whole-cell voltage-clamp method, and a whole-cell current generated when PS was applied was measured. […]
(§4) When PS (100 μmol/L) was extracellularly applied to the cell transfected with plasmid pcDNA3.1-MLSN2 at a holding potential of −40 mV, an inward current (−5.8±0.9, n=10) was measured. After washing the cell, PS was applid thereto at a holding potential of +40 mV, a large outward current (108.9±19.3, n=10) was measured. A current-voltage relationship was measured using a voltage ramp during the response, an outward rectifier was observed.

The test system of assay [6] is control cell not expressing the polypeptide of SEQ ID NO: 2. The assay can be described thus: Whole-cell voltage-clamp in control cell transfected with no expression vector. The format is cell-based, human. Particulars: same conditions as the transfected cell. On the procedure: Each cell obtained in Example 3 was voltage-clamped by a whole-cell voltage-clamp method, and a whole-cell current generated when PS was applied was measured. A solution containing 149 mmol/L NaCl, 5 mmol/L KCl, 2 mmol/L CaCl2, 0.8 mmol/L MgCl2, and 10 mmol/L HEPES-Na (pH=7.4) was used as an extracellular solution, and a solution containing 147 mmol/L CsCl, 4.5 mmol/L EGTA, and 9 mmol/L HEPES-Cs(pH=7.2) was used as an intracellular solution.
as §4

A further assay relates to aged rats. Particulars: non-patent reference 5; cited from earlier work.
Setting [7] is: final concentration 10 μmol/L, 1×10^5 cells.

The text below walks through data of patent US7476508B2, “Method of screening agent for improving memory and learning ability” (Astellas Pharma Inc., priority 2003, dated 2009).

T1 sequence (Q9HCF6 154-1707 isoform Q9HCF6-2 R1670Q): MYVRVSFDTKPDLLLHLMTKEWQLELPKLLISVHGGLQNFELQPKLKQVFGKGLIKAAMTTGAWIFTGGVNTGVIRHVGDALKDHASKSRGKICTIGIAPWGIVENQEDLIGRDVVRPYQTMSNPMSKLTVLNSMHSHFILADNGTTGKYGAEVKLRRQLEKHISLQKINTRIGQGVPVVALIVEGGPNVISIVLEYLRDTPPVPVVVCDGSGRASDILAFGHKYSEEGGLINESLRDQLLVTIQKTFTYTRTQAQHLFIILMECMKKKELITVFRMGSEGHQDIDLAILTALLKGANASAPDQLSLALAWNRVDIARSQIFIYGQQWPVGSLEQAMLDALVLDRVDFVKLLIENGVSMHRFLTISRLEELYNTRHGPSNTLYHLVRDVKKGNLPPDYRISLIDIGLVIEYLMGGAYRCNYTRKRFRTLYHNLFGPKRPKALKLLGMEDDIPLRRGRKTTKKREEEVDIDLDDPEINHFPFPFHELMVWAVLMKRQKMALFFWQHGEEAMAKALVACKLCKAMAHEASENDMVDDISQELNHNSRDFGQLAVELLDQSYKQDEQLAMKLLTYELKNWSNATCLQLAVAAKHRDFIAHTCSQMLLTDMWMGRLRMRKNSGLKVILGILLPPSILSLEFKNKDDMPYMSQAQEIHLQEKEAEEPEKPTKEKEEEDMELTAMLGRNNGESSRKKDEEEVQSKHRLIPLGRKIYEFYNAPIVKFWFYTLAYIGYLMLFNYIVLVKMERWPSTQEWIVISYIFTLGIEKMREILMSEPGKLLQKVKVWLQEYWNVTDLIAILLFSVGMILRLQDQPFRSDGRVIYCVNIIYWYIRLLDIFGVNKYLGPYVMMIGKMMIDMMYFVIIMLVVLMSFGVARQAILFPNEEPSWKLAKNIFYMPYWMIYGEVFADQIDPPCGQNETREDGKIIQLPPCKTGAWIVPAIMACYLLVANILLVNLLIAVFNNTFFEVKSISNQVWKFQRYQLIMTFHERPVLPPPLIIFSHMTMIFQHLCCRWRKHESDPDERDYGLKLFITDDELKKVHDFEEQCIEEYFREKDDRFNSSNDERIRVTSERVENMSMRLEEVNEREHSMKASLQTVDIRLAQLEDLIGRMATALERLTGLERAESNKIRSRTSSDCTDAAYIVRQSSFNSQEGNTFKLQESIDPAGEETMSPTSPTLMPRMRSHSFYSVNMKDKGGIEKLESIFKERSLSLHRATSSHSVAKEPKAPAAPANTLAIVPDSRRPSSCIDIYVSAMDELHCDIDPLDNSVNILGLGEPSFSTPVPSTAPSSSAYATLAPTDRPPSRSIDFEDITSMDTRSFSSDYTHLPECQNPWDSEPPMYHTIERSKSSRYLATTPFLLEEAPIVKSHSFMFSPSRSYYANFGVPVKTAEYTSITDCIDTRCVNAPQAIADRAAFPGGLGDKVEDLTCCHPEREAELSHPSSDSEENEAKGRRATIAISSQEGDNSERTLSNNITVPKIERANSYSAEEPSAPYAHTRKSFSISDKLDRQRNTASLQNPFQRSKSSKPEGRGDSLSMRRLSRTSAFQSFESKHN

The EC50 is the concentration at which the effect is half-maximal. With `CCN(C(=O)N(C)c1c(-c2c(Cl)cccc2Cl)noc1C)c1ccccc1` [compound A, N-[3-(2,6-dichlorophenyl)-5-methylisoxazole-4-yl]-N′-ethyl-N-methyl-N′-phenylurea], in assay [1] (10 μmol/L), the “enhancement of sEPSCs” value is “the enhancement of sEPSCs was detected”. In addition, the “increase in fluorescent intensity (calcium influx)” value (“increase … (calcium influx)” for short) in assay [2] (setting [7]) is on record as “an increase in fluorescent intensity was detected”. The EC50 in assay [3] amounted to 9.8 µM. Moreover, the “increase in fluorescent intensity” value in assay [4] is reported as “such an increase in fluorescent intensity was not detected”.
In the case of `Fc1cccc(F)c1-n1c(CN2CCCCC2)csc1=S` [compound B, 3-(2,6-difluorophenyl)-4-(piperidine-1-ylmethyl)-1,3-thiazole-2(3H)-thion], the “enhancement of sEPSCs” value in assay [1] (10 μmol/L) is given as “the enhancement of sEPSCs was detected”. The “increase … (calcium influx)” value in assay [2] (setting [7]) is listed as “an increase in fluorescent intensity was detected”. For the same compound, the EC50 in assay [3] stood at 6.8 µM. In assay [4], the “increase in fluorescent intensity” value is “such an increase in fluorescent intensity was not detected”.
With `Fc1cccc(F)c1-n1c(CN2CCCC2)csc1=S` [compound C, 3-(2,6-difluorophenyl)-4-(pyrrolidine-1-ylmethyl)-1,3-thiazole-2(3H)-thion], the “enhancement of sEPSCs” value in assay [1] (10 μmol/L) is listed as “the enhancement of sEPSCs was detected”. For the same compound, in assay [2] (setting [7]), the “increase … (calcium influx)” value is “an increase in fluorescent intensity was detected”. Also, the EC50 in assay [3] was 1.9 µM. Further, the “increase in fluorescent intensity” value in assay [4] was “such an increase in fluorescent intensity was not detected”.
As to `CC(=O)c1sccc1NC(=O)CSCc1c(F)cccc1Cl` [compound D, N-(2-acetyl-3-thienyl)-2-[(2-chloro-6-fluorobenzyl)sulfanil]acetamide], the “enhancement of sEPSCs” value in assay [1] (1 μmol/L) is on record as “the enhancement of sEPSCs was detected”. Further, the “increase … (calcium influx)” value in assay [2] (setting [7]) is recorded as “an increase in fluorescent intensity was detected”. Moreover, in assay [3], the EC50 was 3.5 µM. Further, the “increase in fluorescent intensity” value in assay [4] is on record as “such an increase in fluorescent intensity was not detected”.
As for “Pregnenolone sulfate [PS, reference compound]”, the “neurotransmission (acetylcholine release, hippocampal spike frequency, LTP)” value with hippocampal slices was “enhancement of neurotransmission”. Further, the “enhancement of sEPSCs” value in assay [1] (10 μmol/L) was “the enhancement of sEPSCs was similarly detected”. The “increase … (calcium influx)” value in assay [2] (10 μmol/L, 4×10^4 cells cultured for a week) is reported as “an increase in fluorescent intensity was detected”; in assay [2] (50 μmol/L, 4×10^4 cells cultured for a week) it was “an increase in fluorescent intensity was detected”; in assay [2] (setting [7]), “an increase in fluorescent intensity was detected”; in assay [3] (final concentration 10 μmol/L, immediately after addition) it was “approximately 10,000 counts”. The compound also returned an inward current in assay [5] (PS 100 μmol/L applied extracellularly, holding potential −40 mV) of −5.8±0.9. The compound also showed an outward current in assay [5] (PS applied after washing, holding potential +40 mV) of 108.9±19.3. For the same compound, the “whole-cell currents on PS application” value in assay [6] is “such currents were not observed”. Also, the “fluorescent intensity (calcium influx)” value in assay [4] (PS 10 μmol/L, HEK293 cells transfected with pcDNA3.1(+)) is “approximately 0 count”. The “memory and learning ability” value with aged rats was “the memory and learning ability were improved”.
